Experimental data reported in patent US20220257595A1, “MACITENTAN FOR USE IN TREATING PORTOPULMONARY HYPERTENSION” (ACTELION PHARMACEUTICALS LTD, priority 2019, published 2022).

Test: PORTICO PK substudy: steady-state plasma macitentan and ACT-132577
Type: in vivo, human
Protocol: It was planned to enroll at least 20 patients who were on steady-state treatment with macitentan (i.e., at least 4 weeks) into the PK substudy. The substudy was conducted in consenting patients from all centers across all regions who agreed to participate. The substudy consisted of the following periods:
PK assessments period: PK assessments were to be performed after OL study treatment had been taken for at least 4 weeks. The substudy comprised two visits (Day 1: Enrollment and Day 2: Conclusion). See, FIG. 2. Subject eligibility was first checked on Day 1 of the PK substudy prior to the start of assessments.
PK substudy: On Day 1 of the PK substudy, the study treatment was required to be taken directly after the pre-dose blood sample. On Day 2 of the PK substudy, study treatment was required to be taken after the collection of the last PK blood sample (24 hours post Day 1 dose).
F3. Pharmacokinetic Endpoints for Macitentan and its Active Metabolite ACT-132577 • The area under the plasma concentration-time curve during one dosing interval (AUCt). • Maximum plasma concentration (Cmax) during a dosing interval. • The time to reach maximum plasma concentration (tmax) during a dosing interval.
(i) Timing for sampling: For the PK assessment, blood samples were drawn at the following time points: • PK substudy Day 1: Immediately before study treatment administration in the morning (pre-dose) and 1 h, 3 h, 5 h, 6 h, 7 h, 8 h, 9 h, 10 h, 12 h, and 14 h post-dose. • PK substudy Day 2: 24 h post-dose.
(iii) Bioanalysis: A validated liquid chromatography coupled to mass spectrometry method was used for determining the concentrations of macitentan and its metabolite ACT-132577 in plasma. The limit of quantification (LOQ) for both analytes was 1 ng/mL.
The measured individual plasma concentrations of macitentan and its metabolite ACT-132577 were used to directly obtain Cmax and tmax. AUCT was calculated according to the linear trapezoidal rule using the measured concentration-time values above the LOQ during one dosing interval. The PK variables were calculated on the basis of the real (actual) blood sampling time points. For mean value calculations, all values below the LOQ (below the limit of quantification (BLQ) values) were set to zero if ≤50% of the values at a given time point were BLQ. If >50% of the values at a given time point were BLQ, no mean value was calculated. Mean concentration-time profiles were generated using these criteria. The individual and mean plasma concentration-time profiles were plotted on a linear scale. The derived PK variables for macitentan and ACT-132577 (AUCT, Cmax, tmax) are listed by patient. Plasma concentrations per time point were summarized using arithmetic mean, minimum, median, maximum, standard deviation (SD), standard error (SE), and two-sided 95% confidence interval of the mean. […] (*For tmax the geometric mean and its 95% confidence interval were not calculated).

SMILES: NS(=O)(=O)Nc1ncnc(OCCOc2ncc(Br)cn2)c1-c1ccc(Br)cc1 [ACT-132577, aprocitentan]
- Plasma exposure in PoPH patients compared with other forms of PAH / other macitentan studies: consistent between PoPH patients and patients with other forms of PAH
- Trough plasma concentration, mean±SD (OL macitentan 10 mg o.d. at least 4 weeks, PoPH patients, n=8): 737.4 ± 190.0 ng/mL
- Cmax (human, plasma, oral, macitentan 10 mg o.d., PoPH patients, PKS 10 patients, read-out: Cmax, geometric mean (95% confidence interval)): 870 ng/mL
- Tmax (human, plasma, oral, macitentan 10 mg o.d., PoPH patients, PKS 10 patients, read-out: tmax, median (range)): 6.5 h
- AUCT, geometric mean (95% confidence interval) (one dosing interval, macitentan 10 mg o.d., PoPH patients): 18100.0 ng·h/mL
